Reference: ChEMBL document CHEMBL4342426, “Structure-activity relationship of 4-azaindole-2-piperidine derivatives as agents against Trypanosoma cruzi” (Bioorg Med Chem Lett, 2020)

Experiments:
in vitro [1] = details: mouse, liver microsomes
Description: Metabolic stability in mouse liver microsomes assessed as intrinsic clearance at 0.5 uM incubated for 30 mins by LC-MS/MS analysis

in vitro [2] = details: mouse, peritoneal macrophages
Description: (§1) Cytotoxicity against mouse peritoneal Macrophage cells assessed as reduction in cell viability incubated for 3 days by fluorimetry

Macrophage = test: cells; details: Mus musculus, 72 h
Description: as §1

in vitro [3] = details: human, liver microsomes
Description: Metabolic stability in human liver microsomes assessed as intrinsic clearance at 0.5 uM incubated for 30 mins by LC-MS/MS analysis

Trypanosoma cruzi = test: microbe, parasite or virus in culture; details: Tulahuen CL2, MRC-5 SV2, 168 h
Description: Antitrypanosomal activity against Trypanosoma cruzi Tulahuen CL2 amastigotes infected in human MRC5 SV2 cells incubated for 7 days by chlorophenol red beta-D-galactopyranoside substrate based spectrophotometric assay

[4] = system: Trypanosoma brucei rhodesiense; test: microbe, parasite or virus in culture; details: STIB900, 72 h
Description: Antiprotozoal activity against Trypanosoma brucei rhodesiense STIB900 trypomastigotes incubated for 72 hrs by resazurin dye based fluorimetric analysis

Leishmania infantum = test: microbe, parasite or virus in culture; details: for IC50: MHOM/MA(BE)/67/ITMAP263, 120 h; for IC90: MHOM/MA(BE)/67/ITMAP263, in Mus musculus, 120 h
Description: Antileishmanial activity against amastigote stage of Leishmania infantum MHOM/MA(BE)/67/ITMAP263 infected in mouse peritoneal macrophage assessed as parasite growth inhibition incubated for 5 days by Giemsa staining based assay

in vitro [5] = details: PAMPA
Description: Effective permeability of compound by PAMPA assay

cells = details: Homo sapiens, MRC-5 SV2, 72 h
Description: (§2) Cytotoxicity against human MRC5 SV2 cells assessed as reduction in cell viability incubated for 3 days by fluorimetry

physchem = details: buffer, pH 7.4
Description: Lipophilicity, logD of compound at pH 7.4 by HPLC analysis

Trypanosoma brucei = test: microbe, parasite or virus in culture; details: Squib 427, 72 h
Description: Antitrypanosomal activity against Trypanosoma brucei Squib 427 assessed as reduction in parasite growth incubated for 72 hrs by resazurin dye based fluorimetric analysis

in vitro [6] = details: mouse, liver microsomes; remark: listed apart in the source
Description: Metabolic stability in mouse liver microsomes assessed as fraction unbound at 0.5 uM incubated for 30 mins by LC-MS/MS analysis

in vitro [7] = details: human, MRC5 SV2 cells
Description: as §2

in vitro [8] = details: human, MRC5 SV2 cells; remark: listed apart in the source
Description: Selectivity index, ratio of IC50 for human MRC5 SV2 cells to IC50 for Trypanosoma cruzi Tulahuen CL2 amastigotes infected in human MRC5 SV2 cells

SMILES	CLint scaled at 0.5 h, 0.5 µM (in vitro [1])	microsomal CLint at 0.5 h, 0.5 µM (in vitro [1])	IC90 at 72 h (in vitro [2])	CLint scaled at 0.5 h, 0.5 µM (in vitro [3])	microsomal CLint at 0.5 h, 0.5 µM (in vitro [3])	IC50 [4]	IC90 [4]	IC50 (Leishmania infantum)	IC90 (Leishmania infantum)	Papp (in vitro [5])	logD (physchem)	IC50 (Trypanosoma brucei)	IC90 (Trypanosoma brucei)	fraction unbound at 0.5 h, 0.5 µM (in vitro [6])	IC90 at 72 h (in vitro [7])	IC50 (Macrophage)	IC50 (Trypanosoma cruzi)	IC90 (Trypanosoma cruzi)	IC50 (cells)	selectivity ratio (in vitro [8])
O=C(CCc1nc2cccnc2n1CCO)Nc1ccccc1	281 mL/min/kg	62.1 µL/min/mg	64 µM	< 35 mL/min/kg	< 23 µL/min/mg	64 µM	64 µM	64 µM	64 µM	3.98 ×10⁻⁶ cm/s	1.85	64 µM	64 µM	0.705	64 µM	64 µM	64 µM	64 µM	64 µM	–
COc1ccc2[nH]c(C3CCCN(C(=O)c4ccc(F)cc4)C3)cc2n1 (stereo not drawn)	593 mL/min/kg	151 µL/min/mg	64 µM	35 mL/min/kg	26.4 µL/min/mg	19.6 µM	30.6 µM	64 µM	64 µM	14.4 ×10⁻⁶ cm/s	3.39	64 µM	64 µM	0.815	64 µM	64 µM	64 µM	64 µM	64 µM	–
O=C(c1cccc(C(F)(F)F)n1)N1CCCC(c2cc3ncccc3[nH]2)C1 (stereo not drawn)	315 to 1070 mL/min/kg	64 to 196 µL/min/mg	64 µM	38.3 to 210 mL/min/kg	23 to 114 µL/min/mg	64 µM	64 µM	64 µM	64 µM	0.584 to 2.12 ×10⁻⁶ cm/s	2.94 to 3.02	64 µM	64 µM	0.584 to 0.649	64 µM	64 µM	14.8 to 26.1 µM	59.3 to 60.5 µM	64 µM	2.42 to 4.35
Cc1nc(C)c(C(=O)N2CCCC(c3cc4ncccc4[nH]3)C2)s1 (stereo not drawn)	774 mL/min/kg	233 µL/min/mg	64 µM	29.5 mL/min/kg	26.2 µL/min/mg	64 µM	64 µM	64 µM	64 µM	2.88 ×10⁻⁶ cm/s	2.3	64 µM	64 µM	0.96	64 µM	64 µM	64 µM	64 µM	64 µM	–
O=C1c2ccccc2CN1CCc1cc2ncccc2[nH]1	1090 mL/min/kg	213 µL/min/mg	64 µM	119 mL/min/kg	69.1 µL/min/mg	64 µM	64 µM	64 µM	64 µM	0.504 ×10⁻⁶ cm/s	2.19	64 µM	64 µM	0.626	64 µM	64 µM	64 µM	64 µM	64 µM	–
Nc1cc(C2CCCN(C(=O)c3cc(C(F)(F)F)no3)C2)[nH]n1 (stereo not drawn)	175 mL/min/kg	54.3 µL/min/mg	64 µM	< 26.7 mL/min/kg	< 23 µL/min/mg	64 µM	64 µM	64 µM	64 µM	3.76 ×10⁻⁶ cm/s	1.77	64 µM	64 µM	0.991	64 µM	64 µM	64 µM	64 µM	64 µM	–
O=C(Cc1ccccc1)N1CCN(c2nc3ccccc3s2)CC1	–	–	64 µM	210 mL/min/kg	126 µL/min/mg	56 µM	64 µM	64 µM	64 µM	15.3 ×10⁻⁶ cm/s	3.65	64 µM	64 µM	0.647	64 µM	64 µM	40 µM	62.9 µM	64 µM	1.59

Continued by falling IC50 [4], values first:

CLint scaled at 0.5 h, 0.5 µM (in vitro [1])	microsomal CLint at 0.5 h, 0.5 µM (in vitro [1])	IC90 at 72 h (in vitro [2])	CLint scaled at 0.5 h, 0.5 µM (in vitro [3])	microsomal CLint at 0.5 h, 0.5 µM (in vitro [3])	IC50 [4]	IC90 [4]	IC50 (Leishmania infantum)	IC90 (Leishmania infantum)	Papp (in vitro [5])	logD (physchem)	IC50 (Trypanosoma brucei)	IC90 (Trypanosoma brucei)	fraction unbound at 0.5 h, 0.5 µM (in vitro [6])	IC90 at 72 h (in vitro [7])	SMILES	IC50 (Macrophage)	IC50 (Trypanosoma cruzi)	IC90 (Trypanosoma cruzi)	IC50 (cells)	selectivity ratio (in vitro [8])
140 mL/min/kg	25.1 µL/min/mg	64 µM	< 43.3 mL/min/kg	< 23 µL/min/mg	64 µM	64 µM	64 µM	64 µM	5.23 ×10⁻⁶ cm/s	2.03	64 µM	64 µM	0.571	64 µM	CCN(CCC(=O)Nc1cccnc1)C(=O)c1ccc(F)cc1	64 µM	64 µM	64 µM	64 µM	–
19200 mL/min/kg	1270 µL/min/mg	64 µM	468 mL/min/kg	91.3 µL/min/mg	64 µM	64 µM	64 µM	64 µM	16.5 ×10⁻⁶ cm/s	2.3	64 µM	64 µM	0.211	64 µM	O=C(c1ccccc1)N1CCCC(c2cc3ncccn3n2)C1 (stereo not drawn)	64 µM	64 µM	64 µM	64 µM	–
< 108 mL/min/kg	< 23 µL/min/mg	64 µM	< 36.7 mL/min/kg	< 23 µL/min/mg	64 µM	64 µM	64 µM	64 µM	1.42 ×10⁻⁶ cm/s	1.09	64 µM	64 µM	0.684	64 µM	Nc1cc(C2CCCN(C(=O)c3ccccc3)C2)[nH]n1 (stereo not drawn)	64 µM	64 µM	64 µM	64 µM	–
338 mL/min/kg	127 µL/min/mg	64 µM	< 31.7 mL/min/kg	< 23 µL/min/mg	64 µM	64 µM	64 µM	64 µM	2.75 ×10⁻⁶ cm/s	1.71	64 µM	64 µM	0.805	64 µM	O=C(c1ccccc1)N1CCCC(c2cn3cccnc3n2)C1 (stereo not drawn)	64 µM	64 µM	64 µM	64 µM	–
3290 mL/min/kg	861 µL/min/mg	64 µM	49 mL/min/kg	38 µL/min/mg	64 µM	64 µM	64 µM	64 µM	7.69 ×10⁻⁶ cm/s	2.58	64 µM	64 µM	0.836	64 µM	CC(C)(C)OC(=O)N1CCCC(c2cn3cccnc3n2)C1 (stereo not drawn)	64 µM	64 µM	64 µM	64 µM	–
